Laboratory results reported in PMC10176470, “Engaging a Non-catalytic Cysteine Residue Drives Potent and Selective Inhibition of Caspase-6” (Journal of the American Chemical Society, 2023).

Tests used:
Format in all cases: cell-based
[1] = target: proteins of HEK293T cells transiently overexpressing caspase-6 (Homo sapiens, UniProt O14979); settings: exp_ref Probe; protein HNRNPDL (O14979); analysis C6
[2] = target: proteins of HEK293T cells transiently overexpressing caspase-6 (Homo sapiens, UniProt P14868); settings: exp_ref Probe; protein DARS (P14868); analysis C6
[3] = target: proteins of HEK293T cells transiently overexpressing caspase-6 (Homo sapiens, UniProt P18124); settings: Probe; protein RPL7 P18124
[4] = target: proteins of HEK293T cells transiently overexpressing caspase-6 (Homo sapiens, UniProt P21964); settings: Probe; protein COMT P21964
[5] = target: proteins of HEK293T cells transiently overexpressing caspase-6 (Homo sapiens, UniProt P22102); settings: exp_ref Probe; protein GART (P22102); analysis C6
[6] = target: proteins of HEK293T cells transiently overexpressing caspase-6 (Homo sapiens, UniProt P25205); settings: exp_ref Probe; protein MCM3 (P25205); analysis C6
[7] = target: proteins of HEK293T cells transiently overexpressing caspase-6 (Homo sapiens, UniProt P30050); settings: protein RPL12 (P30050)
[8] = target: proteins of HEK293T cells transiently overexpressing caspase-6 (Homo sapiens, UniProt P35579); settings: Probe; protein MYH9 P35579
[9] = target: proteins of HEK293T cells transiently overexpressing caspase-6 (Homo sapiens, UniProt P35908); settings: Probe; protein KRT2 P35908
[10] = target: proteins of HEK293T cells transiently overexpressing caspase-6 (Homo sapiens, UniProt P40227); settings: exp_ref Probe; protein CCT6A (P40227); analysis C6
[11] = target: proteins of HEK293T cells transiently overexpressing caspase-6 (Homo sapiens, UniProt P46777); settings: exp_ref Probe; protein RPL5 (P46777); analysis C6
[12] = target: proteins of HEK293T cells transiently overexpressing caspase-6 (Homo sapiens, UniProt P52272); settings: exp_ref Probe; protein HNRNPM (P52272); analysis C6
[13] = target: proteins of HEK293T cells transiently overexpressing caspase-6 (Homo sapiens, UniProt P53985); settings: exp_ref Probe; protein SLC16A1 (P53985); analysis C6
[14] = target: T1, proteins of HEK293T cells transiently overexpressing caspase-6 (Homo sapiens, UniProt P54577); settings: protein YARS (P54577), analysis C6
T1 sequence (P54577 1-528): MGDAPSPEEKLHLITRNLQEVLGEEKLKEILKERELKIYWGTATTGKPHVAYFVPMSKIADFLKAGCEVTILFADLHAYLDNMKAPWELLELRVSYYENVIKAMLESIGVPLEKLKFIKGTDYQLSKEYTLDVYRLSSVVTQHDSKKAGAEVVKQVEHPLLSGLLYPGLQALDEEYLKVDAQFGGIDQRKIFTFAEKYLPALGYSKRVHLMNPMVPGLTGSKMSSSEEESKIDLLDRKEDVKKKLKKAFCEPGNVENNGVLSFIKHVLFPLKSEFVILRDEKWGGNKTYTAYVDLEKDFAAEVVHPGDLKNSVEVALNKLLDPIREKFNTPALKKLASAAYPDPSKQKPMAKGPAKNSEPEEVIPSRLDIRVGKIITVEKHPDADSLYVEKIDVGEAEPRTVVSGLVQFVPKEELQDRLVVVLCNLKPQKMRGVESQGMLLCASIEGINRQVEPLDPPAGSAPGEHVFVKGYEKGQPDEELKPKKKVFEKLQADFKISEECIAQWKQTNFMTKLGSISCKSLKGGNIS

[15] = target: proteins of HEK293T cells transiently overexpressing caspase-6 (Homo sapiens, UniProt P62913); settings: protein RPL11 (P62913)
[16] = target: proteins of HEK293T cells transiently overexpressing caspase-6 (Homo sapiens, UniProt P84090); settings: Probe; protein ERH P84090
[17] = target: proteins of HEK293T cells transiently overexpressing caspase-6 (Homo sapiens, UniProt Q14152); settings: exp_ref Probe; protein EIF3A (Q14152); analysis C6
[18] = target: proteins of HEK293T cells transiently overexpressing caspase-6 (Homo sapiens, UniProt Q96K37); settings: protein SLC35E1 (Q96K37); exp_ref Probe; analysis C6
[19] = target: proteins of HEK293T cells transiently overexpressing caspase-6 (Homo sapiens, UniProt Q99714); settings: exp_ref Probe; protein HSD17B10 (Q99714); analysis C6
[20] = target: proteins of HEK293T cells transiently overexpressing caspase-6 (Homo sapiens, UniProt Q9UL46); settings: protein PSME2 (Q9UL46); exp_ref Probe; analysis C6
[21] = target: proteins of HEK293T cells transiently overexpressing caspase-6 (Homo sapiens, UniProt Q9Y2X3); settings: protein NOP58 (Q9Y2X3); exp_ref Probe; analysis C6
[22] = target: proteins of HEK293T cells transiently overexpressing caspase-6 (Homo sapiens, UniProt Q9Y5B9); settings: Probe; protein SUPT16H Q9Y5B9

Chain of proteins of HEK293T cells transiently overexpressing caspase-6 (Homo sapiens, UniProt Q96K37) (Q96K37 whole entry): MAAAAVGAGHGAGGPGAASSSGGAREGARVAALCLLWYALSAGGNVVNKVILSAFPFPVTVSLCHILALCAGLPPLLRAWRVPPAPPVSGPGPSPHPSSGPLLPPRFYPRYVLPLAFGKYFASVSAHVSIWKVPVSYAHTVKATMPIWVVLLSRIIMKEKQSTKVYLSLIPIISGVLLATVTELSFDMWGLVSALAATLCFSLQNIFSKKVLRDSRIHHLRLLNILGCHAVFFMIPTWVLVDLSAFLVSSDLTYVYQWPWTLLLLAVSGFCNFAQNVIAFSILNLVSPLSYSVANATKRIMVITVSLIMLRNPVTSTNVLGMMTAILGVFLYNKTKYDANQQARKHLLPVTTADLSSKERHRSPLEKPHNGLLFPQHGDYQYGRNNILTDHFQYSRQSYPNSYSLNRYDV
Chain of proteins of HEK293T cells transiently overexpressing caspase-6 (Homo sapiens, UniProt P53985) (P53985 whole entry): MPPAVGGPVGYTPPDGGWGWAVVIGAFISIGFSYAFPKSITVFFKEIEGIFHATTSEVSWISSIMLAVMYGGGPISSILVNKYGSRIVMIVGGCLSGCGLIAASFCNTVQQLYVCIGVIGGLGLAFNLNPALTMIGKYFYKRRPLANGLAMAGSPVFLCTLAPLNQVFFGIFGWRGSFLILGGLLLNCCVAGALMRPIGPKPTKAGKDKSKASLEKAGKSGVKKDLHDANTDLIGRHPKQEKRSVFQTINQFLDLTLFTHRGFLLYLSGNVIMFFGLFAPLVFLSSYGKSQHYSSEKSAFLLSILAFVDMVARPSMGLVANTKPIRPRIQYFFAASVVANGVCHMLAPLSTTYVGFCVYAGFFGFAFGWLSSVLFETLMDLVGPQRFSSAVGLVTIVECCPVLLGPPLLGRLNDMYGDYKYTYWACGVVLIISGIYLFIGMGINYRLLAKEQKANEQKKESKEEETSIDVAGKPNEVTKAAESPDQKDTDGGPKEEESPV
Chain of proteins of HEK293T cells transiently overexpressing caspase-6 (Homo sapiens, UniProt Q14152) (Q14152 whole entry): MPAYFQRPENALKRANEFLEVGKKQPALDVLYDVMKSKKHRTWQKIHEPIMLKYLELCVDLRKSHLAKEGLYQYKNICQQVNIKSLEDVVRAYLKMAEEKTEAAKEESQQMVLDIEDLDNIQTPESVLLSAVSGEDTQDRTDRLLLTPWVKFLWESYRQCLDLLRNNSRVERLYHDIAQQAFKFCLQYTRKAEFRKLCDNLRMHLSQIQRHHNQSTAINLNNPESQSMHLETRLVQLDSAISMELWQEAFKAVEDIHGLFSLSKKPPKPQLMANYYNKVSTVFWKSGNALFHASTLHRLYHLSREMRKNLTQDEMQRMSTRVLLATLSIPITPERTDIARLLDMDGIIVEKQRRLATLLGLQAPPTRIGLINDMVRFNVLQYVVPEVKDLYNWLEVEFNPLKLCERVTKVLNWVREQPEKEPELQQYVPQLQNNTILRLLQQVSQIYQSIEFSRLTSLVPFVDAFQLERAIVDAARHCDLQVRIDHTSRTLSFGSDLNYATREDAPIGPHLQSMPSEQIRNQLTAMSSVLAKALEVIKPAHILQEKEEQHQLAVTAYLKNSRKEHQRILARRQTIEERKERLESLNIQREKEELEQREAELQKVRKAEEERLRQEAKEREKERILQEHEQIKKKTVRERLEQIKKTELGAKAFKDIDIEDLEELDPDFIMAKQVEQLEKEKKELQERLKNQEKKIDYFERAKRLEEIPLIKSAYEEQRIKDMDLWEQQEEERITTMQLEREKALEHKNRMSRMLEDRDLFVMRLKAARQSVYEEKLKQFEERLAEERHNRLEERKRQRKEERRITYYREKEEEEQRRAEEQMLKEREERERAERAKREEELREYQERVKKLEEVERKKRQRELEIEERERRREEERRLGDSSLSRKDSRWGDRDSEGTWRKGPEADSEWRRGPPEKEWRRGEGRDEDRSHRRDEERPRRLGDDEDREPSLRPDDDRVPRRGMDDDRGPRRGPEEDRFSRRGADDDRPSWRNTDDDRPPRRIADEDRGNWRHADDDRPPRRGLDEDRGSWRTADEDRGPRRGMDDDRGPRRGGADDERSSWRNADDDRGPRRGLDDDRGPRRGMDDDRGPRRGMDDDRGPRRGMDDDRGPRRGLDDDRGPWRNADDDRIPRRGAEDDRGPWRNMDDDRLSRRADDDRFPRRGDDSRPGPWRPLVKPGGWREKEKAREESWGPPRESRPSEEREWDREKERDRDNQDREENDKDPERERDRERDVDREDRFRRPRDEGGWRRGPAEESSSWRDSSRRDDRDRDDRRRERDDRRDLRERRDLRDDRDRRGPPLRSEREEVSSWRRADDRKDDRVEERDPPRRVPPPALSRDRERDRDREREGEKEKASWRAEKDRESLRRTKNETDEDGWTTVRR
Chain of proteins of HEK293T cells transiently overexpressing caspase-6 (Homo sapiens, UniProt O14979) (O14979 whole entry): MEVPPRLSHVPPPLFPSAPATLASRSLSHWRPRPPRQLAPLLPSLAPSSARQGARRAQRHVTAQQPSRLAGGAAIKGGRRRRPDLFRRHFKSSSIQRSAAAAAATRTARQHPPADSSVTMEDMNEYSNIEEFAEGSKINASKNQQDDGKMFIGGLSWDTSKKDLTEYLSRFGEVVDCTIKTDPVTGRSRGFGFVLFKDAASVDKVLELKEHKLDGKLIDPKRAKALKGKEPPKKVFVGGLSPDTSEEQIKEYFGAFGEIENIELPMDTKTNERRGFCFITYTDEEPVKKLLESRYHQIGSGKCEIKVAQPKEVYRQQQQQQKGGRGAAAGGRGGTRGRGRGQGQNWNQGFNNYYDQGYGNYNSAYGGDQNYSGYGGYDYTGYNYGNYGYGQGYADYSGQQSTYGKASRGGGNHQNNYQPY
Chain of proteins of HEK293T cells transiently overexpressing caspase-6 (Homo sapiens, UniProt P40227) (P40227 whole entry): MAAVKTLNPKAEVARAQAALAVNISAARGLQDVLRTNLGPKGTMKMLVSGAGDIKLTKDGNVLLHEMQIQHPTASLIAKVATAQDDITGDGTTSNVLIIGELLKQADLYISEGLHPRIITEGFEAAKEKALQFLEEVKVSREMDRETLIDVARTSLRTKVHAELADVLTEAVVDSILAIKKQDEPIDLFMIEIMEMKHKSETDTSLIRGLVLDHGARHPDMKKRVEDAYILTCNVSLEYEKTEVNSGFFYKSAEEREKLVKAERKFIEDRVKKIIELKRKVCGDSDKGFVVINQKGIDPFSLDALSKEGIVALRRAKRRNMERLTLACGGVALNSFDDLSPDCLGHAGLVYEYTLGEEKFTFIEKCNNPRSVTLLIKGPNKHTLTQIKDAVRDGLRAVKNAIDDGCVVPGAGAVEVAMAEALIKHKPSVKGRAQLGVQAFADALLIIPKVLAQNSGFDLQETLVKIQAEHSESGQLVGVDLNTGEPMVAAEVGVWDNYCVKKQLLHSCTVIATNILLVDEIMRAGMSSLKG
Chain of proteins of HEK293T cells transiently overexpressing caspase-6 (Homo sapiens, UniProt P25205) (P25205 whole entry): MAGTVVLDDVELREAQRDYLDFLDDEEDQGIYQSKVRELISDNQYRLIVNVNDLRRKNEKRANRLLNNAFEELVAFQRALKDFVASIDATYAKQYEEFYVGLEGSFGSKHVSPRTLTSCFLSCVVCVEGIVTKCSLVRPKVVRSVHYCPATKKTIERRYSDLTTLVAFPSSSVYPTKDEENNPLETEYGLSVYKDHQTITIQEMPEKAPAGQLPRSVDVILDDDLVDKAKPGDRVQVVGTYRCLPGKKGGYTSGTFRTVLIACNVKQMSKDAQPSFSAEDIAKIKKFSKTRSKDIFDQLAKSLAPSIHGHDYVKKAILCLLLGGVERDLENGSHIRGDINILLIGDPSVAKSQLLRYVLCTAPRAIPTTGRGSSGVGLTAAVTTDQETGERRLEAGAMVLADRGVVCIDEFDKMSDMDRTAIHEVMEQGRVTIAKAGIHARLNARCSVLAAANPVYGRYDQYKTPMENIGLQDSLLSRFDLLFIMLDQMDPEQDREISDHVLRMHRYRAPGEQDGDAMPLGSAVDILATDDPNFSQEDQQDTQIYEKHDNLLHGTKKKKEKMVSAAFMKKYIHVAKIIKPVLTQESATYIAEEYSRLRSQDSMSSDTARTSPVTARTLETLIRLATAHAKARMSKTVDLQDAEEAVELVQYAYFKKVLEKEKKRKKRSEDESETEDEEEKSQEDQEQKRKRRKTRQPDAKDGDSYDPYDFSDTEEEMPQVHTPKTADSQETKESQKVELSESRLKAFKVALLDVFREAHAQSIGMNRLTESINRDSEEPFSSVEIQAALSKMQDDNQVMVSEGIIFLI
Chain of proteins of HEK293T cells transiently overexpressing caspase-6 (Homo sapiens, UniProt P35908) (P35908 whole entry): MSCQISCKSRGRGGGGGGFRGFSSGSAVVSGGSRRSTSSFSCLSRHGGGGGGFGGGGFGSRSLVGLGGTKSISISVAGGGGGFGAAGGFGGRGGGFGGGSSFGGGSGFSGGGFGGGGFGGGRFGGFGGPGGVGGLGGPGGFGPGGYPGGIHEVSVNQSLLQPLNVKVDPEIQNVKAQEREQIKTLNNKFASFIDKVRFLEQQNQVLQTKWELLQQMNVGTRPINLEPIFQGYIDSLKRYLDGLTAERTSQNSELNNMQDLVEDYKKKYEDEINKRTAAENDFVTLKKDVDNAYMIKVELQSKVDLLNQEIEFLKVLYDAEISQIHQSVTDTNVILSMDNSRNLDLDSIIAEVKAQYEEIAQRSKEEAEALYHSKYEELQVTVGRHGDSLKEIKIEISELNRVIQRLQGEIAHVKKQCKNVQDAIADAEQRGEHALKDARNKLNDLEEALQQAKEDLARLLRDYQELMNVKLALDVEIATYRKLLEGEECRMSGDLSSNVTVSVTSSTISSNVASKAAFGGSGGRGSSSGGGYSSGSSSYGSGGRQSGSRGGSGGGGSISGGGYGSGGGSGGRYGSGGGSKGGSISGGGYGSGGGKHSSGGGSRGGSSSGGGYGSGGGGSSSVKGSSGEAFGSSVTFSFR
Chain of proteins of HEK293T cells transiently overexpressing caspase-6 (Homo sapiens, UniProt Q99714) (Q99714 whole entry): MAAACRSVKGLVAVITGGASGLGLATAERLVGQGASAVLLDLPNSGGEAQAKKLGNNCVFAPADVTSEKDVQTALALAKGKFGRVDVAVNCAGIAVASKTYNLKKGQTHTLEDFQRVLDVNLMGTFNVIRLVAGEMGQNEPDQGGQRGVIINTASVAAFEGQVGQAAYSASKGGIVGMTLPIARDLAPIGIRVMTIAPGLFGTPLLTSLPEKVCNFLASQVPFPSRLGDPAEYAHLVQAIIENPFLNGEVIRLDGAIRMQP

SMILES: C#CCOc1ccc([C@@H]2C[C@@H](C(=O)Nc3ccc(OC(F)(F)F)cc3)CN(S(=O)(=O)C=C)C2)cc1 (relative stereo) [13-t]
- enrich.exp.med [1]: -0.3286
- enrich.exp.med [2]: 0.4884
- enrich.exp.med [3]: -0.45
- enrich.exp.med [4]: -3.436
- enrich.exp.med [5]: 0.2203
- enrich.exp.med [6]: 0.2109
- enrich.exp.med ([7]; exp_ref Probe, analysis C6): 0.2557
- enrich.exp.med.lin [7]: 1.194
- enrich.exp.med.log2 [7]: 0.2557
- enrich.exp.med [8]: -0.6242
- enrich.exp.med [9]: -8.257
- enrich.exp.med [10]: 0.2516
- enrich.exp.med [11]: 0.3142
- enrich.exp.med [12]: 0.2991
- enrich.exp.med [13]: -0.3557
- enrich.exp.med.lin ([14]; Expt Probe): 10.7591
- enrich.exp.med.log2 ([14]; Expt Probe): 3.427
- enrich.exp.med ([14]; exp_ref Probe): 3.427
- enrich.exp.med.lin [15]: 2.408
- enrich.exp.med.log2 [15]: 1.268
- enrich.exp.med ([15]; exp_ref Probe, analysis C6): 1.268
- enrich.exp.med [16]: -0.8193
- enrich.exp.med [17]: 0.8938
- enrich.exp.med [18]: 1.71
- enrich.exp.med [19]: 0.1684
- enrich.exp.med [20]: 1.487
- enrich.exp.med [21]: 1.504
- enrich.exp.med [22]: -0.5962
